Assay results from US11427549B2, “Pyrimidinyloxy benzo-fused compounds as herbicides” (FMC Corporation, priority 2017, dated 2022).

Experiments:
[1] = system: ryegrass, Italian (Italian ryegrass, Lolium multiflorum); experiment: Test A preemergence, ryegrass, Italian; assay type: in vivo; details: Lolium multiflorum, pre-emergence, 240 h, 0 to 100 scale (0 no effect, 100 complete control), read-out: Plant response rating, Ryegrass, Italian
[2] = system: pigweed (Amaranthus retroflexus); experiment: Test A preemergence, pigweed; assay type: in vivo; details: Amaranthus retroflexus, pre-emergence, 240 h, 0 to 100 scale (0 no effect, 100 complete control), read-out: Plant response rating, Pigweed
[3] = system: barnyardgrass (Echinochloa crus-galli); experiment: Test B flooded paddy test, barnyardgrass; details: Echinochloa crus-galli, read-out: Plant response rating, Barnyardgrass (0 to 100 scale, 0 is no effect, 100 is complete control)
[4] = system: foxtail, green (green foxtail, Setaria viridis); experiment: Test A preemergence, foxtail, green; assay type: in vivo; details: Setaria, pre-emergence, 240 h, 0 to 100 scale (0 no effect, 100 complete control), read-out: Plant response rating, Foxtail, Green
Text: Seeds of plant species selected from barnyardgrass (Echinochloa crus-galli), kochia (Kochia scoparia), ragweed (common ragweed, Ambrosia elatior), ryegrass, Italian (Italian ryegrass, Lolium multiflorum), foxtail, giant (giant foxtail, Setaria faberii), foxtail, green (green foxtail, Setaria viridis) and pigweed (Amaranthus retroflexus) were planted into a blend of loam soil and sand and treated preemergence with a directed soil spray using test chemicals formulated in a non-phytotoxic solvent mixture which included a surfactant.
At the same time, plants selected from these weed species and also wheat (Triticum aestivum), corn (Zea mays), blackgrass (Alopecurus myosuroides), and galium (catchweed bedstraw, Galium aparine) were planted in pots containing the same blend of loam soil and sand and treated with postemergence applications of test chemicals formulated in the same manner. Plants ranged in height from 2 to 10 cm and were in the one- to two-leaf stage for the postemergence treatment. Treated plants and untreated controls were maintained in a greenhouse for approximately 10 days, after which time all treated plants were compared to untreated controls and visually evaluated for injury. […] A dash (-) response means no test result.

[5] = system: ragweed (common ragweed, Ambrosia elatior); experiment: Test A preemergence, ragweed; assay type: in vivo; details: Ambrosia artemisiifolia, pre-emergence, 240 h, 0 to 100 scale (0 no effect, 100 complete control), read-out: Plant response rating, Ragweed
[6] = system: barnyardgrass (Echinochloa crus-galli); experiment: Test A postemergence, barnyardgrass; assay type: in vivo; details: Echinochloa crus-galli, post-emergence, 240 h, 0 to 100 scale (0 no effect, 100 complete control), read-out: Plant response rating, Barnyardgrass
[7] = system: corn (Zea mays); experiment: Test A postemergence, corn; assay type: in vivo; details: Zea mays, post-emergence, 240 h, 0 to 100 scale (0 no effect, 100 complete control)
[8] = system: pigweed (Amaranthus retroflexus); experiment: Test A postemergence, pigweed; assay type: in vivo; details: Amaranthus retroflexus, post-emergence, 240 h, 0 to 100 scale (0 no effect, 100 complete control), read-out: Plant response rating, Pigweed
[9] = system: wheat (Triticum aestivum); experiment: Test A postemergence, wheat; assay type: in vivo; details: Triticum aestivum, post-emergence, 240 h, 0 to 100 scale (0 no effect, 100 complete control), read-out: Plant response rating, Wheat
[10] = system: barnyardgrass (Echinochloa crus-galli); experiment: Test A preemergence, barnyardgrass; assay type: in vivo; details: Echinochloa crus-galli, pre-emergence, 240 h, 0 to 100 scale (0 no effect, 100 complete control), read-out: Plant response rating, Barnyardgrass
[11] = system: blackgrass (Alopecurus myosuroides); experiment: Test A postemergence, blackgrass; assay type: in vivo; details: Alopecurus myosuroides, post-emergence, 240 h, 0 to 100 scale (0 no effect, 100 complete control), read-out: Plant response rating, Blackgrass
[12] = system: kochia (Kochia scoparia); experiment: Test A preemergence, kochia; assay type: in vivo; details: Bassia scoparia, pre-emergence, 240 h, 0 to 100 scale (0 no effect, 100 complete control), read-out: Plant response rating, Kochia
[13] = system: galium (catchweed bedstraw, Galium aparine); experiment: Test A postemergence, galium; assay type: in vivo; details: Galium, post-emergence, 240 h, 0 to 100 scale (0 no effect, 100 complete control), read-out: Plant response rating, Galium
[14] = system: rice (Oryza sativa); experiment: Test B flooded paddy test, rice; details: Oryza sativa, read-out: Plant response rating, Rice (0 to 100 scale, 0 is no effect, 100 is complete control)
[15] = system: ragweed (common ragweed, Ambrosia elatior); experiment: Test A postemergence, ragweed; assay type: in vivo; details: Ambrosia artemisiifolia, post-emergence, 240 h, 0 to 100 scale (0 no effect, 100 complete control), read-out: Plant response rating, Ragweed
[16] = system: ducksalad (Heteranthera limosa); experiment: Test B flooded paddy test, ducksalad; details: Heteranthera limosa, read-out: Plant response rating, Ducksalad (0 to 100 scale, 0 is no effect, 100 is complete control)
[17] = system: kochia (Kochia scoparia); experiment: Test A postemergence, kochia; assay type: in vivo; details: Bassia scoparia, post-emergence, 240 h, 0 to 100 scale (0 no effect, 100 complete control), read-out: Plant response rating, Kochia
[18] = system: ryegrass, Italian (Italian ryegrass, Lolium multiflorum); experiment: Test A postemergence, ryegrass, Italian; assay type: in vivo; details: Lolium multiflorum, post-emergence, 240 h, 0 to 100 scale (0 no effect, 100 complete control), read-out: Plant response rating, Ryegrass, Italian

OC1(CCC(F)(F)F)CCc2cccc(Oc3ncc(Cl)cn3)c21 (stereo not drawn) [Compound 14, 7-[(5-Chloro-2-pyrimidinyl)oxy]-2,3-dihydro-1-(3,3,3-trifluoropropyl)-1H-inden-1-ol]
pest or weed control at 125 g/ha ([1]; 125 g ai/ha): 10% | pest or weed control at 500 g/ha ([1]; 500 g ai/ha): 60% | pest or weed control at 125 g/ha ([2]; 125 g ai/ha): 100% | pest or weed control at 500 g/ha ([2]; 500 g ai/ha): 100% | pest or weed control at 250 g/ha [3]: 0% | pest or weed control at 125 g/ha ([4]; 125 g ai/ha): 40% | pest or weed control at 500 g/ha ([4]; 500 g ai/ha): 100% | pest or weed control at 125 g/ha ([5]; 125 g ai/ha): 40% | pest or weed control at 500 g/ha ([5]; 500 g ai/ha): 70% | pest or weed control at 125 g/ha ([6]; 125 g ai/ha): 30% | pest or weed control at 500 g/ha ([6]; 500 g ai/ha): 80% | Corn plant response rating (crop injury, 0 = no effect, 100 = complete kill) at 125 g/ha ([7]; 125 g ai/ha): 10% | Corn plant response rating (crop injury, 0 = no effect, 100 = complete kill) at 500 g/ha ([7]; 500 g ai/ha): 40% | pest or weed control at 125 g/ha ([8]; 125 g ai/ha): 50% | pest or weed control at 500 g/ha ([8]; 500 g ai/ha): 100% | plant injury at 125 g/ha ([9]; 125 g ai/ha): 30% | plant injury at 500 g/ha ([9]; 500 g ai/ha): 60% | pest or weed control at 125 g/ha ([10]; 125 g ai/ha): 20% | pest or weed control at 500 g/ha ([10]; 500 g ai/ha): 90% | pest or weed control at 125 g/ha ([11]; 125 g ai/ha): 40% | pest or weed control at 500 g/ha ([11]; 500 g ai/ha): 90% | pest or weed control at 125 g/ha ([12]; 125 g ai/ha): 50% | pest or weed control at 500 g/ha ([12]; 500 g ai/ha): 100% | pest or weed control at 125 g/ha ([13]; 125 g ai/ha): 50% | pest or weed control at 500 g/ha ([13]; 500 g ai/ha): 90% | plant injury at 250 g/ha [14]: 0% | pest or weed control at 125 g/ha ([15]; 125 g ai/ha): 70% | pest or weed control at 500 g/ha ([15]; 500 g ai/ha): 90% | pest or weed control at 250 g/ha [16]: 40% | pest or weed control at 125 g/ha ([17]; 125 g ai/ha): 80% | pest or weed control at 500 g/ha ([17]; 500 g ai/ha): 80% | pest or weed control at 125 g/ha ([18]; 125 g ai/ha): 20% | pest or weed control at 500 g/ha ([18]; 500 g ai/ha): 90%
